Assay results as given in patent publication US11964979B2, “Camsylate salts of triazolopyrazine derivatives” (ABION Inc., priority 2022, dated 2024).
Values after ≈ are worked out from the molar mass of the structure shown. Values joined by “and” are separate entries in the source; they are usually repeats but may differ in a detail not shown here. Identical values can stand only once. Like-named read-outs stand apart in the source and are kept apart here. Values belong to the molecule of their own block, whether it stands above or below them.

Key:
[1] = 40° C./75% RH
[2] = DVS analysis (hygroscopicity); assay type: physicochemical
Description: Differences in hygroscopicity (moisture uptake) of the various forms of a solid material provided a measure of their relative stability at increasing relative humidity. Moisture sorption isotherms of small samples were obtained using a DVS-1 system from Surface Measurement Systems (London, UK); this instrument is suitable for use with as little as a few milligrams of sample, with an accuracy of 0.1 μg. The relative humidity was varied during sorption-desorption-sorption (40-95-0-40% RH) at a constant temperature of 25° C., typically with a hold time of 60 minutes per step (10% relative humidity step). At the end of the DVS experiment the sample was measured by XRPD.
The hygroscopicity was classified according to the European Pharmacopoeia Hygroscopicity classification.

[3] = Physical and chemical stability study up to 2 years (XRPD, TGMS, HPLC)
[4] = Approximate solubility determination by adding aliquots of solvent; assay type: physicochemical; details: thermodynamic from solid
Description: The approximate solubility was determined by adding small aliquots of solvent (50 μL up to 1 mL, 100 μL above 1 mL) to the solid starting material until complete dissolution was observed or a maximum volume of 4 mL was reached. Afterwards the solvents were evaporated and obtained solids were analyzed by HT-XRPD.

[5] = Thermal stability study in solution (LCMS); assay type: physicochemical; details: for Area % (LCMS): approx. 0.3 mg/mL
Description: A thermal stability study was performed on ABN-401 to investigate the chemical stability of the starting material in solution when exposed to elevated temperatures. Solutions of ABN-401 were prepared in acetone, 1,2-dimethoxyethane, and acetonitrile with a concentration of approximately 0.3 mg/mL. Solutions were left at RT for 1 hour and successively, two aliquots of each solution were taken and heated at 50° C. and 80° C. for one hour. All these solutions were analyzed by LCMS. Additionally, the samples kept at RT were remeasured by LCMS after 24 hours to check the chemical degradation over time.
Starting material characterization and purity assessment of the novel crystalline forms of the free base: • Method name: S19061_03.M • Sample: • Concentration: 0.3 mg/ml • Diluent: Acetonitrile

SMILES: CC1(C)[C@@H]2CC[C@]1(CS(=O)(=O)O)C(=O)C2.CN1CCN(Cc2ccc(-c3cnc(N4CCO[C@H](Cn5nnc6ncc(-c7cnn(C)c7)nc65)C4)nc3)cc2)CC1 [Camp1]
Form after AAC ([1]; Exp. ID SSm14, Acetone, API:CI 1:1): Camp1
Form after AAC ([1]; Exp. ID SSm37, 1,2-Dimethoxyethane, API:CI 1:1): Camp1

SMILES: CC1(C)[C@@H]2CC[C@]1(CS(=O)(=O)O)C(=O)C2.CN1CCN(Cc2ccc(-c3cnc(N4CCO[C@H](Cn5nnc6ncc(-c7cnn(C)c7)nc65)C4)nc3)cc2)CC1 [Camp4]
Form after AAC ([1]; Exp. ID GEN16, Chloroform): Camp4
Form after AAC ([1]; Exp. ID GEN19, Heptane): Camp4
Form after AAC ([1]; Exp. ID GEN23, IPA/Water (97/3), lc = low crystalline): lc
Form after AAC ([1]; Exp. ID GEN25, 1,4-Dioxane/Water (96/4)): Camp4
Form after AAC ([1]; Exp. ID GEN26, THF/Water (95/5)): Camp4

SMILES: CC1(C)[C@@H]2CC[C@]1(CS(=O)(=O)O)C(=O)C2.CN1CCN(Cc2ccc(-c3cnc(N4CCO[C@H](Cn5nnc6ncc(-c7cnn(C)c7)nc65)C4)nc3)cc2)CC1 (stereo in doubt) [Camp2]
Form identified by HT-XRPD in the solid recovered after DVS [2]: Camp4
Change in mass at 80% RH ([2]; 25° C.): 1.4%
Hygroscopicity (European Pharmacopeia Hygroscopicity classification) ([2]; based on change in mass at 80% RH): slightly hygroscopic
Water vapor uptake ([2]; first sorption half-cycle, at 95% RH, 25° C.): 15.6%
Change in mass ([2]; first sorption half-cycle, range 40→95% RH, 25° C.): 14.1%
Change in mass ([2]; last sorption half-cycle, range 0→40% RH, 25° C.): 6.6%
Reversibility of water uptake ([2]; sorption-desorption-sorption 40-95-0-40% RH): irreversible
Form after AAC ([1]; Exp. ID GEN17, Ethanol): Camp2
Form after AAC ([1]; Exp. ID SSm60, ACN, API:CI 1:1): Camp2
API chemical purity (area %) ([3]; 25° C./60% RH for 1 month): 99.8%
Mass loss attributed to water (TGA/TGMS) ([3]; 25° C./60% RH for 1 month): 1.6%
Solid form by HT-XRPD after exposure ([3]; 25° C./60% RH for 1 month (GEN50)): Camp2
API chemical purity (area %) ([3]; 25° C./60% RH for 3 months): 99.7%
Mass loss attributed to water (TGA/TGMS) ([3]; 25° C./60% RH for 3 months): 1.6%
Solid form by HT-XRPD after exposure ([3]; 25° C./60% RH for 3 months (GEN51)): Camp2
API chemical purity (area %) ([3]; 25° C./60% RH for 15 months): 99.5% and 97.3%
Mass loss attributed to water (TGA/TGMS) ([3]; 25° C./60% RH for 15 months): 1.6%
Solid form by HT-XRPD after exposure ([3]; 25° C./60% RH for 15 months (GEN52)): Camp2
API chemical purity (area %) ([3]; 25° C./60% RH for 24 months): 100%
Mass loss attributed to water (TGA/TGMS) ([3]; 25° C./60% RH for 24 months): 1.9%
Solid form by HT-XRPD after exposure ([3]; 25° C./60% RH for 24 months (GEN53)): Camp2
Solid form conversion (HT-XRPD) ([3]; 25° C./60% RH up to 24 months): no solid form conversion occurred
Solid form conversion (HT-XRPD) ([3]; 40° C./75% RH): solid form conversions were observed after 3 months
API chemical purity (area %) ([3]; 40° C./75% RH for 1 month): 99.8%
Mass loss attributed to water (TGA/TGMS) ([3]; 40° C./75% RH for 1 month): 1.8%
Solid form by HT-XRPD after exposure ([3]; 40° C./75% RH for 1 month (GEN54)): Camp2
API chemical purity (area %) ([3]; 40° C./75% RH for 3 months): 99.3%
Mass loss attributed to water (TGA/TGMS) ([3]; 40° C./75% RH for 3 months): 7.1%
Solid form by HT-XRPD after exposure ([3]; 40° C./75% RH for 3 months (GEN55)): Camp4
API chemical purity (area %) ([3]; 40° C./75% RH for 15 months): 93.7%
Mass loss attributed to water (TGA/TGMS) ([3]; 40° C./75% RH for 15 months): 6.9%
Solid form by HT-XRPD after exposure ([3]; 40° C./75% RH for 15 months (GEN56)): Camp4
API chemical purity (area %) ([3]; 40° C./75% RH for 24 months): 88.6%
Mass loss attributed to water (TGA/TGMS) ([3]; 40° C./75% RH for 24 months): 6.7%
Solid form by HT-XRPD after exposure ([3]; 40° C./75% RH for 24 months (GEN57), E = Form E of the free base): Camp3+E

solubility ([4]; organic solvent or mixture, 1,2-Dimethoxyethane (SAS6)): 12.7 to 13.8 mg/mL (≈ 22.4 to 24.4 mM)
solubility ([4]; organic solvent or mixture, 1,4-Dioxane (SAS4)): > 199 mg/mL
solubility ([4]; organic solvent or mixture, Acetone (SAS1)): 22.1 to 25.6 mg/mL (≈ 39 to 45.2 mM)
solubility ([4]; organic solvent or mixture, Chloroform (SAS3)): > 311 mg/mL
solubility ([4]; organic solvent or mixture, Ethyl acetate (SAS5)): 4.4 to 4.6 mg/mL (≈ 7.76 to 8.12 mM)
solubility ([4]; organic solvent or mixture, Isopropanol (SAS7)): < 2.7 mg/mL
solubility ([4]; organic solvent or mixture, Methanol (SAS8)): < 2.9 mg/mL
solubility ([4]; organic solvent or mixture, Tetrahydrofuran (SAS9)): > 181 mg/mL
solubility ([4]; Water (SAS10)): < 3.1 mg/mL
Area % (LCMS) ([5]; 1,2-dimethoxyethane solution, 1 h/50° C.): 98.6%
Area % (LCMS) ([5]; 1,2-dimethoxyethane solution, 1 h/80° C.): 97.7%
Area % (LCMS) ([5]; 1,2-dimethoxyethane solution, 1 h/RT): 99.0%
Area % (LCMS) ([5]; 1,2-dimethoxyethane solution, 24 h/RT): 98.8%
Area % (LCMS) ([5]; ACN solution, 1 h/50° C.): 99.0%
Area % (LCMS) ([5]; ACN solution, 1 h/80° C.): 98.7%
Area % (LCMS) ([5]; ACN solution, 1 h/RT): 99.0%
Area % (LCMS) ([5]; ACN solution, 24 h/RT): 98.1%
Area % (LCMS) ([5]; Acetone solution, 1 h/50° C.): 99.0%
Area % (LCMS) ([5]; Acetone solution, 1 h/80° C.): 99.0%
Area % (LCMS) ([5]; Acetone solution, 1 h/RT): 98.8%
Area % (LCMS) ([5]; Acetone solution, 24 h/RT): 98.5%
Mass loss attributed to water (TGA/TGMS) ([3]; 25° C./60% RH for 1 month): 3.7%
Mass loss attributed to water (TGA/TGMS) ([3]; 25° C./60% RH for 3 months): 4.1%
Mass loss attributed to water (TGA/TGMS) ([3]; 25° C./60% RH for 15 months): 3.3%
API chemical purity (area %) ([3]; 25° C./60% RH for 24 months): 87.2%
Mass loss attributed to water (TGA/TGMS) ([3]; 25° C./60% RH for 24 months): 5.3%
Mass loss attributed to water (TGA/TGMS) ([3]; 40° C./75% RH for 1 month): 4.0%
Mass loss attributed to water (TGA/TGMS) ([3]; 40° C./75% RH for 3 months): 4.4%
Mass loss attributed to water (TGA/TGMS) ([3]; 40° C./75% RH for 15 months): 3.7%
API chemical purity (area %) ([3]; 40° C./75% RH for 24 months): 90.7%
Mass loss attributed to water (TGA/TGMS) ([3]; 40° C./75% RH for 24 months): 5.2%
SMILES: CN1CCN(Cc2ccc(-c3cnc(N4CCOC(Cn5nnc6ncc(-c7cnn(C)c7)nc65)C4)nc3)cc2)CC1 (stereo not shown) [ABN-401]
Chemical degradation in solution ([5]; samples kept at 50° C. and 80° C. for one hour, acetone, 1,2-dimethoxyethane, acetonitrile): No significant chemical degradation was observed
Chemical degradation (LCMS) ([3]; 24 months at 25° C./60% RH and at 40° C./75% RH): chemical degradation is occurring at both conditions

SMILES: CC1(C)[C@@H]2CC[C@]1(CS(=O)(=O)O)C(=O)C2.CN1CCN(Cc2ccc(-c3cnc(N4CCO[C@H](Cn5nnc6ncc(-c7cnn(C)c7)nc65)C4)nc3)cc2)CC1 [Camp5]
Form after AAC ([1]; Exp. ID GEN21, THF): Camp2
